The values below are quoted from earlier work in patent US20180117080A1, “COMPOSITIONS AND METHODS FOR TREATING SKIN CONDITIONS” (priority 2015, published 2018).

With `[Cl-].[K+]` [KCl, Potassium Chloride], the “g/L Water Solubility 20c” value is reported as 344 g/L.
